The source of these data is the C3SDB collision cross section collection.

Several values for one entry are separate records, joined by “and”; a condition that tells them apart may be missing. Equal values may be shown once.

For data set [1] the following is noted: instrument: TW, calibrated with phosphatidylcholines (ESI+) and phosphatidylethanolamines (ESI-).
For data set [2] the following is noted: instrument: DT, single field.
For data set [3] the following is noted: instrument: DT, single field, calibrated with Agilent tune mix (Agilent).
For data set [4] the following is noted: instrument: DT, stepped-field.
For data set [5] the following is noted: instrument: TW, calibrated with phosphatidylcholines (ESI+) and phosphatidylethanolamines (ESI-). The source holds these as a separate data set.
The conditions of data set [6]: instrument: DT, stepped-field. The source holds these as a separate data set.

With `CCCCCCCCCCCC=CCC(=O)OC[C@H](CO[C@@H]1O[C@H](CO[C@H]2O[C@H](CO)[C@H](O)C(O)C2O)[C@H](O)C(O)C1O)OC(=O)CC=CCCCCCCCCCCC` (stereo partly drawn) [DGDG(30:2)], the entries for the “collision cross section (N2)” value in data set [1] ([M+NH4]+) and in data set [1] ([M+Na]+) were 295.4 Å² and 291.7 Å², respectively.

In the case of `CCCCCCCCCCCCCCCCCCCCC(=O)O[C@H](COC(=O)CCCCCCCCCCCC)COP(=O)([O-])OCC[N+](C)(C)C` [PC(34:0)], the “collision cross section (N2)” value was 289.07 Å² and 290.41 Å² in data set [2] ([M+H]+); 288.39 Å² in data set [2] ([M+Na]+); 289.7 Å² in data set [3] ([M+H]+); 301.1 Å² in data set [4] ([M+H]+); 285.8 Å² in data set [5] ([M+H]+).

Turning to `CCCCCC/C=C\CCCCCCCCCC(=O)OC[C@H](COP(=O)([O-])OCC[N+](C)(C)C)OC(=O)CCCCCCCCCCCCCCC` [PC(34:1)], the “collision cross section (N2)” value in data set [2] ([M+H]+) was 285.62 Å² and 287.54 Å²; in data set [3] ([M+H]+), 287.1 Å²; in data set [4] ([M+H]+), 300.3 Å²; in data set [5] ([M+CH3COO]-), 289.1 Å²; in data set [5] ([M+H]+), 285.3 Å².

As for `CCCCCCCC/C=C\C/C=C\C/C=C\CCCC(=O)OC[C@H](COP(=O)([O-])OCC[N+](C)(C)C)OC(=O)CCCCCCCCCCCCC` [PC(34:3)], the “collision cross section (N2)” value in data set [3] ([M+HCOO]-) is reported as 283.5 Å²; in data set [3] ([M+H]+), 281.8 Å²; in data set [6] ([M+K]+), 292.4 Å²; in data set [4] ([M+H]+) it was 292.3 Å²; in data set [5] ([M+H]+), 278.8 Å².

As to `CCCCC/C=C\C/C=C\CCCCCCCCCC(=O)O[C@H](COC(=O)CCCCCCCCCCCCCCC)COP(=O)(O)OCCN` [PE(36:2)], the “collision cross section (N2)” value in data set [3] ([M+H]+) was 279.3 Å²; in data set [3] ([M+Na]+) it was 284.6 Å²; in data set [3] ([M-H]-), 268.5 Å²; in data set [6] ([M+Na]+), 285.7 Å²; in data set [4] ([M+H]+) it was 293 Å²; in data set [4] ([M-H]-), 276 Å² and 275.9 Å². For the same compound, the “collision cross section (N2)” value in data set [5] ([M+H]+) is listed as 275.7 Å²; in data set [5] ([M-H]-) it was 267.4 Å².

For `CCCCC/C=C\C/C=C\CCCCCCCCCC(=O)O[C@H](COC(=O)CCCCCCC/C=C\C/C=C\CCCCC)COP(=O)(O)OCCN` [PE(38:4)], the “collision cross section (N2)” value was 282.9 Å² in data set [3] ([M+H]+); 290 Å² in data set [6] ([M+Na]+); 278.4 Å² and 277.4 Å² in data set [4] ([M-H]-); 280.4 Å² in data set [5] ([M+H]+); 271.1 Å² in data set [5] ([M-H]-).

`CC/C=C\C/C=C\C/C=C\C/C=C\C/C=C\CCCC(=O)O[C@H](COCCCCCCCCCCCCCCCC)COP(=O)(O)OCCN` [PE(o36:5)]: the “collision cross section (N2)” value in data set [6] ([M+Na]+) came to 279.2 Å²; in data set [4] ([M-H]-), 270.4 Å².

As to `CC/C=C\C/C=C\C/C=C\C/C=C\CCCCC(=O)OC[C@H](COP(=O)(O)O[C@H]1C(O)C(O)C(O)[C@@H](O)C1O)OC(=O)CCCCCCCCCCCCCCCCCCC` (stereo partly drawn) [PI(38:4)], the “collision cross section (N2)” value in data set [3] ([M+H]+) is 302.3 Å²; in data set [3] ([M+NH4]+), 304 Å²; in data set [3] ([M-H]-), 292.9 Å²; in data set [4] ([M-H]-), 303.6 Å² and 300.7 Å²; in data set [5] ([M+Na]+), 297.4 Å²; in data set [5] ([M-H]-), 292.1 Å².

Regarding `CCCCCCCCCC/C=C\CCCCCCCCCC(=O)O[C@H](COC(=O)CCCCCCCCCCCCC)COP(=O)(O)OC[C@H](N)C(=O)O` [PS(36:1)], the “collision cross section (N2)” value is reported as 286.2 Å² in data set [3] ([M+H]+); 287.5 Å² in data set [3] ([M+Na]+); 279.1 Å² in data set [3] ([M-H]-); 289.4 Å² in data set [4] ([M-H]-); 278.8 Å² in data set [5] ([M-H]-).
